# According to ChEMBL document CHEMBL4373690, “Photoactivatable Prolyl Hydroxylase 2 Inhibitors for Stabilizing the Hypoxia-Inducible Factor with Light” (J Med Chem, 2019):
# Calls of active or inactive are those of the source. The rule behind the calls is not given here.
# Columns and labels:
# L02 = test: Cytotoxicity against human L02 cells at 100 uM after 72 hrs by MTT assay; assay type: cell-based; conditions: l02, 72 h
# HEK293 = test: Cytotoxicity against HEK293 cells at 100 uM after 72 hrs by MTT assay; assay type: cell-based; conditions: human, hek293, 72 h
# Hep 3B2 = test: Cytotoxicity against human Hep3B cells at 100 uM after 72 hrs by MTT assay; assay type: cell-based; conditions: hep 3b2, 72 h
# HUVEC = test: Cytotoxicity against HUVEC cells at 100 uM after 72 hrs by MTT assay; assay type: cell-based; conditions: human
# [1] = Drug metabolism in pH 7.4 PBS assessed as light-mediated formation of N-(5-(1-(2-(4-chlorophenoxy)ethyl)-1H-1,2,3-triazol-4-yl)-3-hydroxypicolinoyl)glycine at 50 uM followed by laser irradiation by HPLC analysis
# [2] = Drug metabolism in pH 7.4 PBS assessed as light-mediated formation of N-(5-(1-(2-(4-chlorophenoxy)ethyl)-1H-1,2,3-triazol-4-yl)-3-hydroxypicolinoyl)glycine at 50 uM followed by laser irradiation for 9 mins by HPLC analysis
# [3] = Chemical stability in pH 7.4 PBS buffer at 50 uM measured over 24 hrs by HPLC analysis; assay type: physicochemical; conditions: pH 7.4, 24 h
# [4] = Drug metabolism in pH 7.4 PBS assessed as light-mediated formation of N-(5-(1-(2-(4-chlorophenoxy)ethyl)-1H-1,2,3-triazol-4-yl)-3-hydroxypicolinoyl)glycine at 50 uM followed by laser irradiation for 20 mins by HPLC analysis
# [5] = target: Egl nine homolog 1 (Homo sapiens) (UniProt Q9GZT9); test: Photoactivated inhibition of PHD2 (181 to 426 residues) (unknown origin) using FITC-HIF1alpha (556 to 574 residues) as substrate incubated for 60 mins using laser irradiated compound at 405 nm light for 30 secs to 30 mins by fluorescence polarization assay
# [6] = target: Egl nine homolog 1 (Homo sapiens) (UniProt Q9GZT9); test: Photoactivated inhibition of PHD2 in HEK293 cells harboring firefly luciferase gene and renilla luciferase gene assessed as spatiotemporal dependent accumulation of hypoxia response element level at 100 uM using […] under laser light irradiation after 24 hrs by chemiluminescence assay; assay type: cell-based
# [7] = Drug metabolism in pH 7.4 PBS assessed as light-mediated formation of N-(5-(1-(2-(4-chlorophenoxy)ethyl)-1H-1,2,3-triazol-4-yl)-3-hydroxypicolinoyl)glycine at 50 uM followed by laser irradiation for 30 secs to 20 mins by UV-Visible spectroscopy
# [8] = Drug metabolism in pH 7.4 PBS assessed as light-mediated formation of N-(5-(1-(2-(4-chlorophenoxy)ethyl)-1H-1,2,3-triazol-4-yl)-3-hydroxypicolinoyl)glycine at 50 uM followed by laser irradiation for 2 mins by HPLC analysis
# [9] = target: Egl nine homolog 1 (Homo sapiens) (UniProt Q9GZT9); test: Photoactivated inhibition of PHD2 in human Hep3B cells assessed as increase in HIF-2alpha level in nucleus in presence of light irradiation for 20 mins measured after 10 hrs by Western blot analysis; assay type: cell-based
# [10] = Stability in rat plasma assessed as compound remaining at […] measured at 8 hrs by HPLC analysis; assay type: ADME, cell-free; conditions: read-out: Stability
# [11] = target: Egl nine homolog 1 (Homo sapiens) (UniProt Q9GZT9); test: Photoactivated inhibition of PHD2 in human Hep3B cells assessed as stabilization of HIFalpha by measuring upregulation of EPO gene expression at 50 uM in presence of light irradiation for 1 to 30 mins by qRT-PCR analysis; assay type: cell-based
# [12] = Drug metabolism in pH 7.4 PBS assessed as light-mediated formation of N-(5-(1-(2-(4-chlorophenoxy)ethyl)-1H-1,2,3-triazol-4-yl)-3-hydroxypicolinoyl)glycine at 50 uM followed by laser irradiation for 5 mins by HPLC analysis
# [13] = Drug metabolism in pH 7.4 PBS assessed as light-mediated formation of 7-(diethylamino)-4-(hydroxymethyl)-2H-chromen-2-one at 50 uM followed by laser irradiation by HPLC analysis
# [14] = Drug metabolism in pH 7.4 PBS assessed as light-mediated formation of 7-(diethylamino)-4-(hydroxymethyl)-2H-chromen-2-one at 50 uM followed by laser irradiation by UV-Visible spectroscopy
# [15] = Stability in human plasma assessed as compound remaining at […] measured at 8 hrs by HPLC analysis; assay type: ADME, cell-free; conditions: read-out: Stability
# [16] = target: Egl nine homolog 1 (Homo sapiens) (UniProt Q9GZT9); test: Photoactivated inhibition of PHD2 in human Hep3B cells assessed as increase in HIF-1alpha level in presence of light irradiation for 1 to 20 mins measured after 10 hrs by Western blot analysis; assay type: cell-based
# [17] = target: Egl nine homolog 1 (Homo sapiens) (UniProt Q9GZT9); test: Photoactivated inhibition of PHD2 in human Hep3B cells assessed as increase in HIF-1alpha level in nucleus in presence of light irradiation for 20 mins measured after 10 hrs by Western blot analysis; assay type: cell-based
# [18] = target: Egl nine homolog 1 (Homo sapiens) (UniProt Q9GZT9); test: Photoactivated inhibition of PHD2 (181 to 426 residues) (unknown origin) at 1.23 uM using FITC-HIF1alpha (556 to 574 residues) as substrate incubated for 60 mins using laser irradiated compound at 405 nm light for 20 mins by fluorescence polarization assay relative to control
# [19] = Drug metabolism in pH 7.4 PBS assessed as light-mediated formation of N-(5-(1-(2-(4-chlorophenoxy)ethyl)-1H-1,2,3-triazol-4-yl)-3-hydroxypicolinoyl)glycine at 50 uM followed by laser irradiation for 15 mins by HPLC analysis
# [20] = Drug metabolism in pH 7.4 PBS assessed as light-mediated formation of N-(5-(1-(2-(4-chlorophenoxy)ethyl)-1H-1,2,3-triazol-4-yl)-3-hydroxypicolinoyl)glycine at 50 uM followed by laser irradiation for 30 secs by HPLC analysis
# [21] = target: Egl nine homolog 1 (Homo sapiens) (UniProt Q9GZT9); test: Photoactivated inhibition of PHD2 in human Hep3B cells assessed as increase in HIF-2alpha level in presence of light irradiation for 1 to 20 mins measured after 10 hrs by Western blot analysis; assay type: cell-based
# [22] = target: Egl nine homolog 1 (Homo sapiens) (UniProt Q9GZT9); test: Photoactivated inhibition of PHD2 (181 to 426 residues) (unknown origin) at 1.23 uM using FITC-HIF1alpha (556 to 574 residues) as substrate incubated for 60 mins using laser irradiated compound at 405 nm light for >20 mins by fluorescence polarization assay
# [23] = Drug metabolism in pH 7.4 PBS assessed as light-mediated formation of N-(5-(1-(2-(4-chlorophenoxy)ethyl)-1H-1,2,3-triazol-4-yl)-3-hydroxypicolinoyl)glycine at 50 uM followed by laser irradiation by UV-Visible spectroscopy
# [24] = target: Egl nine homolog 1 (Homo sapiens) (UniProt Q9GZT9); test: Photoactivated inhibition of PHD2 in human Hep3B cells assessed as stabilization of HIFalpha by measuring upregulation of EPO gene expression at 50 uM in presence of light irradiation for >20 mins by qRT-PCR analysis; assay type: cell-based
# [25] = target: Egl nine homolog 1 (Homo sapiens) (UniProt Q9GZT9); test: Photoactivated inhibition of PHD2 in HEK293 cells harboring firefly luciferase gene and renilla luciferase gene assessed as stabilization of HIF-alpha at 100 uM using […] under light irradiation for 1 to 30 mins and measured after 24 hrs by chemiluminescence assay; assay type: cell-based
# [26] = target: Egl nine homolog 1 (Homo sapiens) (UniProt Q9GZT9); test: Photoactivated inhibition of PHD2 (181 to 426 residues) (unknown origin) at 1.23 uM using FITC-HIF1alpha (556 to 574 residues) as substrate incubated for 60 mins using laser irradiated compound at 405 nm light by fluorescence polarization assay
# [27] = Drug metabolism in pH 7.4 PBS assessed as light-mediated formation of N-(5-(1-(2-(4-chlorophenoxy)ethyl)-1H-1,2,3-triazol-4-yl)-3-hydroxypicolinoyl)glycine at 50 uM followed by laser irradiation for 120 mins by HPLC analysis
# Sequence of Egl nine homolog 1 (Homo sapiens) (Q9GZT9 2-426 limits assumed): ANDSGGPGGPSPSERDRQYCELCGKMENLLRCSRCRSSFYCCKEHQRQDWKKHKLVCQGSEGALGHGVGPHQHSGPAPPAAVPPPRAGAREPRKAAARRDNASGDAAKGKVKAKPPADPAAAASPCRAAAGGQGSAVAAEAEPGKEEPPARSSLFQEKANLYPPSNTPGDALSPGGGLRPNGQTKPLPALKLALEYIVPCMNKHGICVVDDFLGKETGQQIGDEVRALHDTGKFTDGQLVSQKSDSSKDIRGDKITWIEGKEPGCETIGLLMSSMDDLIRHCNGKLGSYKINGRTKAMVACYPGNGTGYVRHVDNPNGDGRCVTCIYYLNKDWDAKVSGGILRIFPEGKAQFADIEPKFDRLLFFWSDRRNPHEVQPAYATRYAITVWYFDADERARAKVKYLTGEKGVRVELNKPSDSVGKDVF
smiles,measurement,setting,value
O=C(O)CNC(=O)c1ncc(-c2cn(CCOc3ccc(Cl)cc3)nn2)cc1O,Activity,L02,Non-Toxic
same,Activity,HEK293,Non-Toxic
same,Activity,Hep 3B2,Non-Toxic
same,Activity,HUVEC,Non-Toxic
CCN(CC)c1ccc2c(COC(=O)CNC(=O)c3ncc(-c4cn(CCOc5ccc(Cl)cc5)nn4)cc3O)cc(=O)oc2c1,Drug metabolism,[1],Metabolite detected
same,Drug metabolism,[2],68%
same,Stability,[3],Stable
same,Drug metabolism,[4],100%
same,inhibition,[5],Active
same,inhibition,[6],Active
same,Drug metabolism,[7],Metabolite detected
same,Drug metabolism,[8],16%
same,inhibition,[9],Active
same,remaining at 8 h,[10],> 90%
same,Activity,L02,Non-Toxic
same,inhibition,[11],Active
same,Activity,HEK293,Non-Toxic
same,Drug metabolism,[12],49%
same,Drug metabolism,[13],Metabolite detected
same,Activity,Hep 3B2,Non-Toxic
same,Drug metabolism,[14],Metabolite detected
same,remaining at 8 h,[15],> 90%
same,inhibition,[16],Active
same,inhibition,[17],Active
same,inhibition,[18],95.2%
same,Drug metabolism,[19],82%
same,Drug metabolism,[20],5%
same,inhibition,[21],Active
same,Activity,HUVEC,Non-Toxic
same,inhibition,[22],Active
same,Drug metabolism,[23],Metabolite detected
same,inhibition,[24],Active
same,inhibition,[25],Active
CCN(CC)c1ccc2c(COc3cc(-c4cn(CCOc5ccc(Cl)cc5)nn4)cnc3C(=O)NCC(=O)O)cc(=O)oc2c1,inhibition,[26],inactive
same,Drug metabolism,[27],Metabolite not detected
